Test results from US20230085307A1, “PYRIDAZINONE COMPOUND AND HERBICIDE” (NISSAN CHEMICAL CORPORATION, priority 2019, published 2023).

Key:
[1] = test system: late watergrass; experiment: Test Example 1: herbicidal activity, application before weed generation under submerged conditions (Table 16, symbol A); format: in vivo, late watergrass (Echinochloa oryzicola); conditions: 320 g/ha applied herbicide
How it was run: (§1)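 Emulsion formulation, water-diluted to set dose, was put onto the flooded surface (4 cm depth, alluvial soil) the same day weeds were sown and 2.5-leaf rice transplanted. After 3 weeks at 25-30 °C under glass, each species was rated 0 (≤5% kill) to 5 (≥90% kill).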

[2] = test system: Japanese bulrush; experiment: Test Example 1: herbicidal activity, application before weed generation under submerged conditions (Table 16, symbol B); format: in vivo, Japanese bulrush (Schoenoplectus juncoides); conditions: 320 g/ha applied herbicide
How it was run: as §1

[3] = test system: oval-leafed pondweed; experiment: Test Example 1: herbicidal activity, application before weed generation under submerged conditions (Table 16, symbol C); format: in vivo, oval-leafed pondweed (Monochoria vaginalis); conditions: 320 g/ha applied herbicide
How it was run: as §1

[4] = test system: barnyard grass; experiment: Test Example 3: herbicidal effect by foliage application, Wagner pot (Table 18, symbol H); format: in vivo, barnyard grass (Echinochloa crus-galli)
How it was run: (§2)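 Plants were sown in alluvial soil held under 0.1–0.5 cm standing water and grown 14 days in a greenhouse at 25–30 °C. An emulsifiable formulation, water-diluted to the set dose, was then sprayed onto the foliage, and effects were scored three weeks later using previously defined criteria.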

[5] = test system: Chinese sprangletop; experiment: Test Example 3: herbicidal effect by foliage application, Wagner pot (Table 18, symbol D); format: in vivo, chinese sprangletop (Leptochloa chinensis)
How it was run: as §2

[6] = test system: rice flat sedge; experiment: Test Example 3: herbicidal effect by foliage application, Wagner pot (Table 18, symbol E); format: in vivo, rice flat sedge (Cyperus iria)
How it was run: as §2

[7] = test system: southern crabgrass; experiment: Test Example 4: herbicidal effect by soil treatment (Table 19, symbol F); format: in vivo, southern crabgrass (Digitaria ciliaris); conditions: amount of applied herbicide 320 g/ha
How it was run: (§3)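 Pre-emergence style soil spray: seeds under ~1.5 cm sterilized diluvial soil received a uniform coat of emulsion diluted to the predetermined herbicide amount. Greenhouse 25–30° C; readout at week three on previously defined criteria.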

[8] = test system: green foxtail; experiment: Test Example 4: herbicidal effect by soil treatment (Table 19, symbol G); format: in vivo, green foxtail (Setaria viridis); conditions: amount of applied herbicide 320 g/ha
How it was run: as §3

[9] = test system: barnyard grass; experiment: Test Example 4: herbicidal effect by soil treatment (Table 19, symbol H); format: in vivo, barnyard grass (Echinochloa crus-galli); conditions: amount of applied herbicide 320 g/ha
How it was run: as §3

[10] = test system: wild oat; experiment: Test Example 4: herbicidal effect by soil treatment (Table 19, symbol I); format: in vivo, wild oat (Avena fatua); conditions: amount of applied herbicide 320 g/ha
How it was run: as §3

[11] = test system: blackgrass; experiment: Test Example 4: herbicidal effect by soil treatment (Table 19, symbol J); format: in vivo, blackgrass (Alopecurus myosuroides); conditions: amount of applied herbicide 320 g/ha
How it was run: as §3

[12] = test system: Italian ryegrass; experiment: Test Example 4: herbicidal effect by soil treatment (Table 19, symbol K); format: in vivo, Italian ryegrass (Lolium multiflorum); conditions: amount of applied herbicide 320 g/ha
How it was run: as §3

[13] = test system: windgrass; experiment: Test Example 4: herbicidal effect by soil treatment (Table 19, symbol L); format: in vivo, windgrass (Apera spica-venti); conditions: amount of applied herbicide 320 g/ha
How it was run: as §3

[14] = test system: velvetleaf; experiment: Test Example 4: herbicidal effect by soil treatment (Table 19, symbol M); format: in vivo, velvetleaf (Abutilon theophrasti); conditions: amount of applied herbicide 320 g/ha
How it was run: as §3

[15] = test system: redroot pigweed; experiment: Test Example 4: herbicidal effect by soil treatment (Table 19, symbol N); format: in vivo, redroot pigweed (Amaranthus retroflexus); conditions: amount of applied herbicide 320 g/ha
How it was run: as §3

[16] = test system: lambsquarters; experiment: Test Example 4: herbicidal effect by soil treatment (Table 19, symbol O); format: in vivo, lambsquarters (Chenopodium album); conditions: amount of applied herbicide 320 g/ha
How it was run: as §3

[17] = test system: chickweed; experiment: Test Example 4: herbicidal effect by soil treatment (Table 19, symbol P); format: in vivo, common chickweed (Stellaria media); conditions: amount of applied herbicide 320 g/ha
How it was run: as §3

[18] = test system: persian speedwell; experiment: Test Example 4: herbicidal effect by soil treatment (Table 19, symbol R); format: in vivo, Persian speedwell (Veronica persica); conditions: amount of applied herbicide 320 g/ha
How it was run: as §3

[19] = test system: southern crabgrass; experiment: Test Example 5: herbicidal effect by foliage application, plastic box (Table 20, symbol F); format: in vivo, southern crabgrass (Digitaria ciliaris); conditions: foliage application, evaluated three weeks after application
How it was run: (§4)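 Plants were sown into sterilized diluvial soil under about 1.5 cm cover and kept in a greenhouse at 25° C. to 30° C. Fourteen days on, foliage received an even spray of the diluted emulsion. Herbicidal or crop effect was judged three weeks afterwards.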

[20] = test system: green foxtail; experiment: Test Example 5: herbicidal effect by foliage application, plastic box (Table 20, symbol G); format: in vivo, green foxtail (Setaria viridis); conditions: foliage application, evaluated three weeks after application
How it was run: as §4

[21] = test system: barnyard grass; experiment: Test Example 5: herbicidal effect by foliage application, plastic box (Table 20, symbol H); format: in vivo, barnyard grass (Echinochloa crus-galli); conditions: foliage application, evaluated three weeks after application
How it was run: as §4

[22] = test system: wild oat; experiment: Test Example 5: herbicidal effect by foliage application, plastic box (Table 20, symbol I); format: in vivo, wild oat (Avena fatua); conditions: foliage application, evaluated three weeks after application
How it was run: as §4

[23] = test system: blackgrass; experiment: Test Example 5: herbicidal effect by foliage application, plastic box (Table 20, symbol J); format: in vivo, blackgrass (Alopecurus myosuroides); conditions: foliage application, evaluated three weeks after application
How it was run: as §4

[24] = test system: Italian ryegrass; experiment: Test Example 5: herbicidal effect by foliage application, plastic box (Table 20, symbol K); format: in vivo, Italian ryegrass (Lolium multiflorum); conditions: foliage application, evaluated three weeks after application
How it was run: as §4

[25] = test system: windgrass; experiment: Test Example 5: herbicidal effect by foliage application, plastic box (Table 20, symbol L); format: in vivo, windgrass (Apera spica-venti); conditions: foliage application, evaluated three weeks after application
How it was run: as §4

[26] = test system: velvetleaf; experiment: Test Example 5: herbicidal effect by foliage application, plastic box (Table 20, symbol M); format: in vivo, velvetleaf (Abutilon theophrasti); conditions: foliage application, evaluated three weeks after application
How it was run: as §4

[27] = test system: redroot pigweed; experiment: Test Example 5: herbicidal effect by foliage application, plastic box (Table 20, symbol N); format: in vivo, redroot pigweed (Amaranthus retroflexus); conditions: foliage application, evaluated three weeks after application
How it was run: as §4

[28] = test system: lambsquarters; experiment: Test Example 5: herbicidal effect by foliage application, plastic box (Table 20, symbol O); format: in vivo, lambsquarters (Chenopodium album); conditions: foliage application, evaluated three weeks after application
How it was run: as §4

[29] = test system: chickweed; experiment: Test Example 5: herbicidal effect by foliage application, plastic box (Table 20, symbol P); format: in vivo, common chickweed (Stellaria media); conditions: foliage application, evaluated three weeks after application
How it was run: as §4

[30] = test system: persian speedwell; experiment: Test Example 5: herbicidal effect by foliage application, plastic box (Table 20, symbol R); format: in vivo, Persian speedwell (Veronica persica); conditions: foliage application, evaluated three weeks after application
How it was run: as §4

[31] = amount of applied herbicide 320 g/ha

Cc1nn(C)c(=O)c(-c2c(-c3ccc(OC(C)C)cc3)sc3ccc(Cl)cc23)c1O [2-107]
Herbicidal effect on A: late watergrass (grade 0-5) [1]: 2 (Herbicidal rate of 20% or more and less than 40%)
Herbicidal effect on B: Japanese bulrush (grade 0-5) [2]: 0 (Herbicidal rate of 5% or less (almost no effect))
Herbicidal effect on C: oval-leafed pondweed (grade 0-5) [3]: 0 (Herbicidal rate of 5% or less (almost no effect))
herbicidal effect on H (barnyard grass), rating 0-5 ([4]; 320 g/ha): 4 (Herbicidal rate of 70% or more and less than 90%)
herbicidal effect on D (Chinese sprangletop), rating 0-5 ([5]; 320 g/ha): 0 (Herbicidal rate of 5% or less (almost no effect))
herbicidal effect on E (rice flat sedge), rating 0-5 ([6]; 320 g/ha): 2 (Herbicidal rate of 20% or more and less than 40%)
F: southern crabgrass, herbicidal effect rating [7]: 0 (Herbicidal rate of 5% or less (almost no effect))
G: green foxtail, herbicidal effect rating [8]: 0 (Herbicidal rate of 5% or less (almost no effect))
H: barnyard grass, herbicidal effect rating [9]: 0 (Herbicidal rate of 5% or less (almost no effect))
I: wild oat, herbicidal effect rating [10]: 0 (Herbicidal rate of 5% or less (almost no effect))
J: blackgrass, herbicidal effect rating [11]: 0 (Herbicidal rate of 5% or less (almost no effect))
K: Italian ryegrass, herbicidal effect rating [12]: 0 (Herbicidal rate of 5% or less (almost no effect))
L: windgrass, herbicidal effect rating [13]: 0 (Herbicidal rate of 5% or less (almost no effect))
M: velvetleaf, herbicidal effect rating [14]: 0 (Herbicidal rate of 5% or less (almost no effect))
N: redroot pigweed, herbicidal effect rating [15]: 0 (Herbicidal rate of 5% or less (almost no effect))
O: lambsquarters, herbicidal effect rating [16]: 0 (Herbicidal rate of 5% or less (almost no effect))
P: chickweed, herbicidal effect rating [17]: 0 (Herbicidal rate of 5% or less (almost no effect))
R: persian speedwell, herbicidal effect rating [18]: 5 (Herbicidal rate of 90% or more (almost completely withered))
herbicidal effect on F: southern crabgrass ([19]; 320 g/ha): 3 (Herbicidal rate of 40% or more and less than 70%)
herbicidal effect on G: green foxtail ([20]; 320 g/ha): 4 (Herbicidal rate of 70% or more and less than 90%)
herbicidal effect on H: barnyard grass ([21]; 320 g/ha): 4 (Herbicidal rate of 70% or more and less than 90%)
herbicidal effect on I: wild oat ([22]; 320 g/ha): 0 (Herbicidal rate of 5% or less (almost no effect))
herbicidal effect on J: blackgrass ([23]; 320 g/ha): 3 (Herbicidal rate of 40% or more and less than 70%)
herbicidal effect on K: Italian ryegrass ([24]; 320 g/ha): 0 (Herbicidal rate of 5% or less (almost no effect))
herbicidal effect on L: windgrass ([25]; 320 g/ha): 4 (Herbicidal rate of 70% or more and less than 90%)
herbicidal effect on M: velvetleaf ([26]; 320 g/ha): 3 (Herbicidal rate of 40% or more and less than 70%)
herbicidal effect on N: redroot pigweed ([27]; 320 g/ha): 4 (Herbicidal rate of 70% or more and less than 90%)
herbicidal effect on O: lambsquarters ([28]; 320 g/ha): 3 (Herbicidal rate of 40% or more and less than 70%)
herbicidal effect on P: chickweed ([29]; 320 g/ha): 5 (Herbicidal rate of 90% or more (almost completely withered))
herbicidal effect on R: persian speedwell ([30]; 320 g/ha): 5 (Herbicidal rate of 90% or more (almost completely withered))

CCSCc1ccc(-c2sc3ccc(F)cc3c2-c2c(O)c(C)nn(C)c2=O)cc1 [2-319]
Herbicidal effect on A: late watergrass (grade 0-5) [1]: 4 (Herbicidal rate of 70% or more and less than 90%)
Herbicidal effect on B: Japanese bulrush (grade 0-5) [2]: 2 (Herbicidal rate of 20% or more and less than 40%)
Herbicidal effect on C: oval-leafed pondweed (grade 0-5) [3]: 3 (Herbicidal rate of 40% or more and less than 70%)
herbicidal effect on H: barnyard grass [4, 31]: 5 (Herbicidal rate of 90% or more (almost completely withered))
herbicidal effect on D: Chinese sprangletop [5, 31]: 4 (Herbicidal rate of 70% or more and less than 90%)
herbicidal effect on E: rice flat sedge [6, 31]: 5 (Herbicidal rate of 90% or more (almost completely withered))
herbicidal effect on F: southern crabgrass [7]: 4 (Herbicidal rate of 70% or more and less than 90%)
herbicidal effect on G: green foxtail [8]: 4 (Herbicidal rate of 70% or more and less than 90%)
herbicidal effect on H: barnyard grass [9]: 3 (Herbicidal rate of 40% or more and less than 70%)
herbicidal effect on I: wild oat [10]: 0 (Herbicidal rate of 5% or less (almost no effect))
herbicidal effect on J: blackgrass [11]: 0 (Herbicidal rate of 5% or less (almost no effect))
herbicidal effect on K: Italian ryegrass [12]: 4 (Herbicidal rate of 70% or more and less than 90%)
herbicidal effect on L: windgrass [13]: 1 (Herbicidal rate of 5% or more and less than 20%)
herbicidal effect on M: velvetleaf [14]: 3 (Herbicidal rate of 40% or more and less than 70%)
herbicidal effect on N: redroot pigweed [15]: 4 (Herbicidal rate of 70% or more and less than 90%)
herbicidal effect on O: lambsquarters [16]: 3 (Herbicidal rate of 40% or more and less than 70%)
herbicidal effect on P: chickweed [17]: 0 (Herbicidal rate of 5% or less (almost no effect))
herbicidal effect on R: persian speedwell [18]: 4 (Herbicidal rate of 70% or more and less than 90%)
F: southern crabgrass, herbicidal effect (criteria 0-5) ([19]; AAH 320 g/ha): 5 (Herbicidal rate of 90% or more (almost completely withered))
G: green foxtail, herbicidal effect (criteria 0-5) ([20]; AAH 320 g/ha): 5 (Herbicidal rate of 90% or more (almost completely withered))
H: barnyard grass, herbicidal effect (criteria 0-5) ([21]; AAH 320 g/ha): 5 (Herbicidal rate of 90% or more (almost completely withered))
I: wild oat, herbicidal effect (criteria 0-5) ([22]; AAH 320 g/ha): 4 (Herbicidal rate of 70% or more and less than 90%)
J: blackgrass, herbicidal effect (criteria 0-5) ([23]; AAH 320 g/ha): 4 (Herbicidal rate of 70% or more and less than 90%)
K: Italian ryegrass, herbicidal effect (criteria 0-5) ([24]; AAH 320 g/ha): 4 (Herbicidal rate of 70% or more and less than 90%)
L: windgrass, herbicidal effect (criteria 0-5) ([25]; AAH 320 g/ha): 4 (Herbicidal rate of 70% or more and less than 90%)
M: velvetleaf, herbicidal effect (criteria 0-5) ([26]; AAH 320 g/ha): 5 (Herbicidal rate of 90% or more (almost completely withered))
N: redroot pigweed, herbicidal effect (criteria 0-5) ([27]; AAH 320 g/ha): 5 (Herbicidal rate of 90% or more (almost completely withered))
O: lambsquarters, herbicidal effect (criteria 0-5) ([28]; AAH 320 g/ha): 5 (Herbicidal rate of 90% or more (almost completely withered))
P: chickweed, herbicidal effect (criteria 0-5) ([29]; AAH 320 g/ha): 5 (Herbicidal rate of 90% or more (almost completely withered))
R: persian speedwell, herbicidal effect (criteria 0-5) ([30]; AAH 320 g/ha): 5 (Herbicidal rate of 90% or more (almost completely withered))
